Data on one compound can be found in PMC5094555, “Human Mitochondrial Cytochrome b Variants Studied in Yeast: Not All Are Silent Polymorphisms” (Human Mutation, 2016).

The subject of assay [1] is yeast AD1-9 strains (wild type and cytochrome b mutants). The assay is described as follows: Respiratory growth assay with increasing concentration of drug. It is filed as cell-based, Saccharomyces cerevisiae. On the procedure: Diploids were used in the experiments, except for monitoring the sensitivity of respiratory growth to atovaquone, where the AD1‐9 series was used.
Yeast strains were grown in 5 ml of YPEth medium with increasing concentration of drug. Cultures were inoculated from 1‐day‐old cultures on YPG to an OD600 nm of 0.2 and incubated at 28°C with vigorous shaking to maintain good aeration. Cell densities measured as OD600 nm were estimated 2 or 3 days after inoculation.

Assay [2] has as its system yeast complex III, cytochrome b p.His141Tyr. Also on record: method as in Vallières et al. 2013. The settings on record: ref Vallières et al. 2013; cited from earlier work.
Assay [3] deals with T1, yeast complex III (wild type) (Saccharomyces cerevisiae, UniProt P00163).
T1 construct: Mitochondria were added to obtain a final concentration of 5–30 nM of complex III; endogenous in cells; host or cells: mitochondria prepared from S. cerevisiae grown in YPGal (diploid strains)
Also on record: method as in Vallières et al., 2013. The settings on record: atovaquone; per nM complex III; yeast enzyme; ref Vallières et al., 2013; read-out: IC50 (midpoint inhibition concentration); cited from earlier work.

Assay [4] deals with malaria parasite complex III. Further details: method as in Biagini et al., 2008. The settings on record: atovaquone; malaria parasite enzyme; ref Biagini et al., 2008; cited from earlier work.
The next assay concerns the target T2, bovine complex III (Bos taurus, UniProt P00157).
T2 construct: catalytic activity of bovine and yeast complex III, using purified mitochondria; from tissue
Also on record: method as in Vallières et al., 2013. The settings on record: atovaquone; per nM complex III; bovine enzyme; ref Vallières et al., 2013; read-out: IC50 (midpoint inhibition concentration); cited from earlier work.

In assay [5] the target is yeast complex III, cytochrome b p.Ser172Gly (Saccharomyces cerevisiae, UniProt P00163, S172G). Format: biochemical. The settings on record: this work.
Experimental: Yeast mitochondria were prepared as in Lemaire and Dujardin (2008). Briefly, yeast grown in YPGal medium were harvested at mid‐log phase. Protoplasts were obtained by enzymatic digestion of the cell wall using zymolyase in an osmotic protection buffer. Mitochondria were then prepared by differential centrifugation following osmotic shock of the protoplasts. Mitochondrial samples were aliquoted and stored at −80°C. Concentration of complex III in the mitochondrial samples was determined from dithionite‐reduced optical spectra, using ε = 28.5 mM^−1/cm at 562 − 575 nm. Decylubiquinol‐cytochrome c reductase activities were determined at room temperature by measuring the reduction of cytochrome c (final concentration of 20 μM) at 550 nm versus 540 nm over 1‐min time course in 10 mM potassium phosphate pH 7, 0.01% (w/v) lauryl‐maltoside and 1 mM KCN. Mitochondria were added to obtain a final concentration of 5–30 nM of complex III. […] Initial rates were measured as a function of the decylubiquinol concentration. […]
Cytochrome c reduction activity was measured as described above in the presence of increasing concentrations of inhibitors (six to 10 different concentrations). […] The midpoint inhibition concentrations (IC50) were determined from the titrations and the IC50 values were normalized by the concentration of complex III.
The subject of assay [6] is yeast complex III, cytochrome b CysCysVal 133-135 ValLeuPro. Also on record: method as in Fisher and Meunier 2005. The settings on record: ref Fisher and Meunier 2005; cited from earlier work.
For assay [7], the system named is yeast complex III, cytochrome b p.His141Phe. Also on record: method as in Fisher and Meunier 2005. The settings on record: ref Fisher and Meunier 2005; cited from earlier work.

`O=C1C(O)=C([C@H]2CC[C@H](c3ccc(Cl)cc3)CC2)C(=O)c2ccccc21` [atovaquone]: the “Sensitivity of respiratory growth to atovaquone” value in assay [1] (strain HS-p.Ser172Asn (humanised Qo site), versus control strain (Fig. 3C)) is reported as “inhibited at slightly higher doses of atovaquone than the control strain”; in assay [1] (strain HS-p.Ser172Asn versus HS-p.Ser172Asp (Fig. 3C)) it was “more sensitive”; in assay [1] (strain HS-p.Ser172Asp (humanised Qo site), versus control strain (Fig. 3C)), “inhibited at slightly higher doses of atovaquone than the control strain”; in assay [1] (strain p.Ser172Asn, compared with p.Ser172Asp and p.Leu150Phe (Fig. 3B)) it was “increased sensitivity compared with p.Ser172Asp”; in assay [1] (strain p.Ser172Gly, compared with p.Ser172Asp and p.Leu150Phe (Fig. 3B)) it was “increased sensitivity compared with p.Ser172Asp”; in assay [1] (wt strain, compared with p.Ser172Asp and p.Leu150Phe (Fig. 3B)) it was “increased sensitivity compared with p.Ser172Asp”. The “atovaquone sensitivity (IC50 mutant/IC50 control)” value is reported as 0.5 in assay [2], 1.1 in assay [5], 3.5 in assay [6] and 0.4 in assay [7]. Further, the IC50 in assay [3] is 4 nM; in assay [4], about 3 nM; at bovine complex III, 75 nM.
